Measured values from patent US11841360B1, “Systems, devices, and methods for ex vivo assessment of responses to multiple therapeutic agents” (Oregon Health & Science University, priority 2018, dated 2023).

Assays:
[1] = test system: JIMT1; details: HER2+ basal-like JIMT1, with HGF; cited from earlier work
[2] = test system: BT474 tumors; details: HER2+ luminal-like BT474 tumors, with NRG1b; cited from earlier work
[3] = test system: MMTV-PyMT tumors; assay: Multiplex nanodose assay (MNA): implantable microdevice in tumor, CC3/MHC-I IHC and multiplex IHC adjacent to the drug-releasing well; assay type: in vivo, mouse; details: mIHC, 3 days
Description: Multiplex nanodose assay (MNA) system and translation to breast cancer patients: The illustrated microdevice (FIG. 6A) is a non-toxic 4×0.8 mm resin cylinder with eighteen 200 μm deep reservoirs, that are packed with active compounds (drugs or drug combinations) in solid form. The device is implanted and stays in the tumor tissue for up to 8 days; after which the tumor/tissue surrounding the device is harvested with the device in place and formalin fixed and paraffin embedded (FFPE). The tumor tissue is analyzed adjacent to each drug well using multiplex IHC (mIHC) with antibodies that interrogate one or more of cleaved caspase activity, epithelial, mesenchymal, endothelial status, as well as immune composition and activity. […] Signal of individual markers are merged and the overlap is quantified.
(FIG. 8A). […] Mean intensity value of the CC3 signal was measured adjacent to the drug releasing reservoir and was normalized to control PEG only loaded reservoir. […] (n=3 regions of interest in one sample for (FIG. 8F) and n=3 drug loaded wells for (FIG. 8D); significance was calculated by a two-tailed t-test with equal variance. Of note, early microdevice studies validated each well to be a biological replicate due to heterogeneous nature of tumors in general (Jonas et al., Sci Transl. Med. 7, 284ra59, 2015). Microfluidic ex vivo platform maintains the viability of the primary mouse tumor tissue. […]

[4] = test system: immunocompetent mouse models of triple negative and HER2+ breast cancer with late stage spontaneously developing tumors; assay: MNA small scale screening using 5 FDA approved drugs, CC3 and multiplex IHC; assay type: in vivo; details: for infiltration of cytotoxic neutrophils: mIHC close to the drug releasing well
Description: Panobinostat induces immunogenic cell death associated with Neuropilin-1 neutrophil infiltration: We have developed a novel pre-clinical model system—the Multiplex Nanodose Assay (MNA)—that enables a comprehensive single cell analysis of drug-mediated effects in complex tumor microenvironment (TME). The MNA is based on a recently developed implantable microdevice that performs drug sensitivity testing of multiple drugs at once inside a living tissue (FIGS. 18A and 18B) (Jonas et al., Sci Transl Med 7:284ra57, 2015; Watson et al., Cell Syst 1-14, 2018, doi.org/10.1016/j.cels.2018.02.001). The drugs are passively released into distinct tumor regions and we analyze the drug mediated effects in close proximity to the drug releasing well by multiplex immunohistochemistry (mIHC) (FIG. 18C). This is a sequential IHC staining on a single formalin fixed paraffin embedded (FFPE) tissue for multiparametric characterization of single cells similar to flow cytometry, except that the cells are studies in their natural intact environment (Tsujikawa et al., Cell Rep 19:203-17, 2017; Chang et al., Proc Annu Int Conf IEEE Eng Med Biol Soc EMBS. 4046-9, 2017). The spatial relation of the functionally different populations facilitates identification of the drug-mediated cellular mechanisms. This knowledge can be then translated to rapidly identify rational combination treatment strategies.
With the MNA, we have performed a small scale screening using 5 FDA approved drugs in immunocompetent mouse models of triple negative and HER2+ breast cancer with late stage spontaneously developing tumors. […]
Since panobinostat-mediated effects in vivo are likely linked to effective anti-tumor immunity and increased response to PD-1 blockade therapy, we took a closer look at the immediate interaction between dying tumor cells and tumor microenvironment. […] In the multiplex readout panel, we incorporated stains that interrogate basic drug-sensitivity testing, epithelial, mesenchymal, endothelial compartment, but mainly multiple markers of immune composition and activity. […]

SMILES | apoptosis under TKI in presence of hepatocyte growth factor (HGF) [1] | proliferation under TKI in presence of neuregulin-1b (NRG1b) [2] | infiltrate of cytotoxic neutrophils at the reservoir [3] | share of Neuropilin-1 positive cells that are cytotoxic neutrophils (Myeloperoxidase staining) ([4]; at the panobinostat well) [%] | infiltration of cytotoxic neutrophils [4] | infiltration of cytotoxic neutrophils ([4]; listed as Panobinostat)
CS(=O)(=O)CCNCc1ccc(-c2ccc3ncnc(Nc4ccc(OCc5cccc(F)c5)c(Cl)c4)c3c2)o1 [Lapatinib] | decreasing apoptosis to normal levels | restores the proliferation | – | – | – | –
CCOc1cc2ncc(C#N)c(Nc3ccc(OCc4ccccn4)c(Cl)c3)c2cc1NC(=O)/C=C/CN(C)C [Neratinib] | decreasing apoptosis to normal levels | restores the proliferation | – | – | – | –
Cc1[nH]c2ccccc2c1CCNCc1ccc(/C=C/C(=O)NO)cc1 [panobinostat] | – | – | heavy infiltrate of cytotoxic neutrophils | ~85 | increased infiltration of cytotoxic neutrophils | robust increase of neutrophils
